Assay results from patent US9687572B2, “PSMA-targeted dendrimers” (MOLECULAR INSIGHT PHARMACEUTICALS, INC., priority 2010, dated 2017).

Target: T1, PSMA (Homo sapiens, UniProt Q04609)
T1 construct: host or cells: LNCaP human prostate cancer cells
Experiment: Competitive binding assay against [123I]-MIP-1072 on LNCaP cells
Details: FIG. 1
Experimental: The newly prepared analogs of the general structure 5 were screened in a human prostate cancer cell binding assay at a concentration of 3 nM using PSMA positive (+), LnCap cells.
Human prostate cancer cell line, LNCaP (PSMA positive) were obtained from the American Type Culture Collection (Rockville, Md.). LNCaP cells were maintained in RPMI-1640 medium (Invitrogen, Carlsbad, Calif.) supplemented with 10% fetal bovine serum (Hyclone, Logan, Utah) in a humidified incubator at 37° C./5% CO2. Cells were removed from flasks for passage or for transfer to 12-well assay plates by incubating them with 0.25% trypsin/EDTA (Invitrogen, Carlsbad, Calif.).
In a typical competitive binding assay, LNCaP cells were plated in 12-well plates at approximately 4×10^5 cells/well and incubated for 48 hours in a humidified incubator at 37° C./5% carbon dioxide prior to addition of PSMA inhibitors. The exemplary EDTA-PSMA tetramer MIP-1444 was diluted in serum-free cell culture medium containing 0.5% bovine serum albumin (BSA). Diluted MIP-1444 was added to the cells in the presence of 3 nM [^123I]-MIP-1072 for 1 hour at room temperature. Cells were removed from the plates by gently pipetting and transferred to 1.5 mL Eppendorff tubes. Samples were microcentrifuged for 30 seconds at 15K×g. […] Cell binding of [^123I]-MIP-1072 was determined by counting the cell pellet in a Wallac 1282 automated gamma counter. […]

T1 sequence (Q04609 whole entry): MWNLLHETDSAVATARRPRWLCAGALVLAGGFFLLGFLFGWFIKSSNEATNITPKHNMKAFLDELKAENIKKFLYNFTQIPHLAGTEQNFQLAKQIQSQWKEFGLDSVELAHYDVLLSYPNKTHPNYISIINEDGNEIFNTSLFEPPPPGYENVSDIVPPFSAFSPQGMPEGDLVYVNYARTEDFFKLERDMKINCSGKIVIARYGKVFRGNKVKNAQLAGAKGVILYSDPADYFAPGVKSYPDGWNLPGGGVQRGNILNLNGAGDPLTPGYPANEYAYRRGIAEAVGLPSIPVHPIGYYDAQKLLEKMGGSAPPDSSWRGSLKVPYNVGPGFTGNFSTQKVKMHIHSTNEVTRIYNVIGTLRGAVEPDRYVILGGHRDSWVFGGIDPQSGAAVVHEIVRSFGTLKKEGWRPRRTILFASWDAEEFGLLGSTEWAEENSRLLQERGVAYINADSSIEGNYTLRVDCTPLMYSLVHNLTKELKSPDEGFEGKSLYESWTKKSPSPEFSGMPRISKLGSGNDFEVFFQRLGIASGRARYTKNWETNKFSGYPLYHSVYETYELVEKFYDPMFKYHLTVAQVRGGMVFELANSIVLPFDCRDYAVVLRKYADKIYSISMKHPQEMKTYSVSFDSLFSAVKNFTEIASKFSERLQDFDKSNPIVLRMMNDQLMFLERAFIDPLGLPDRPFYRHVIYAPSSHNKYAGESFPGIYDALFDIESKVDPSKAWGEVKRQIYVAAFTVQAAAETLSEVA

IC50 value fold greater than the IC50 for the tetramer MIP-1444 (3 nM [123I]-MIP-1072, 1 hour at room temperature): 36 fold | affinity for PSMA (in words) (competitive binding curves): low affinity
Compound: NCCCC[C@H](NC(=O)N[C@@H](CCC(=O)O)C(=O)O)C(=O)O [MIP-1033]
